Data published in patent US20020160986A1, “Compounds having activity as inhibitors of cytochrome P450RAI” (priority 2000, published 2002).

Legend:
[1] = target: T1, RARγ (Homo sapiens, UniProt P13631); experiment: chimeric receptor transactivation assay, RARγ; type: cell-based; conditions: value in parentheses
T1 sequence (P13631 185-419 limits assumed): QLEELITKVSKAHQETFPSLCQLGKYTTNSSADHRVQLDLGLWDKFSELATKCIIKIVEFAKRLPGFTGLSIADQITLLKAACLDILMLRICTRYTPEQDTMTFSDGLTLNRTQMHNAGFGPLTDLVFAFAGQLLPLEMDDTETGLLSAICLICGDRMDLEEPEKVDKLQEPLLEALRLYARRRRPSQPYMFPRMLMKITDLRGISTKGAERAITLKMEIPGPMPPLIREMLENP
Source text: (§1) Assays described below measure the ability of a compound to bind to, and/or activate various retinoid receptor subtypes. When in these assays a compound binds to a given receptor subtype and activates the transcription of a reporter gene through that subtype, then the compound is considered an agonist of that receptor subtype. […] In the below described assays the ability of the compounds to bind to RAR60 , RAR62 , RARγ, RXR60 , RXR62 , and RXRγ receptors, and the ability or inability of the compounds to activate transcription of a reporter gene through these receptor subtypes can be tested.
(§2) As far as specific assays are concerned, a chimeric receptor transactivation assay which tests for agonist-like activity in the RAR60 , RARβ, and RARγ, receptor subtypes, and which is based on work published by Feigner P. L. and Holm M. (1989) Focus, 112 is described in detail in U.S. Pat. No. 5,455,265. The specification of U.S. Pat. No. 5,455,265 is hereby expressly incorporated by reference. The numeric results obtained with several preferred compounds of this invention in this assay are shown below in Table 1.
(§3) A holoreceptor transactivation assay and a ligand binding assay which measure the antagonist/agonist like activity of the compounds of the invention, or their ability to bind to the several retinoid receptor subtypes, respectively, are described in published PCT Application No. WO WO93/11755 (particularly on pages 30-33 and 37-41) published on Jun. 24, 1993, the specification of which is also incorporated herein by reference. A detailed experimental procedure for holoreceptor transactivations has been described by Heyman et al. Cell 68,397-406, (1992); Allegretto et al. J. Biol. Chem. 268,26625-26633, and Mangelsdorf et al. The Retinoids: Biology, Chemistry and Medicine, pp 319-349, Raven Press Ltd., New York, which are expressly incorporated herein by reference. The results obtained in this assay are expressed in EC50 numbers, as they are also in the chimeric receptor transactivation assay. The results of ligand binding assay are expressed in Kd numbers. (See Cheng et al. Biochemical Pharmacology Vol. 22 pp 3099-3108, expressly incorporated herein by reference.)

[2] = target: T2, RARα (Homo sapiens, UniProt P10276); experiment: chimeric receptor transactivation assay, RARα; type: cell-based; conditions: value in parentheses
T2 sequence (P10276 183-417 limits assumed): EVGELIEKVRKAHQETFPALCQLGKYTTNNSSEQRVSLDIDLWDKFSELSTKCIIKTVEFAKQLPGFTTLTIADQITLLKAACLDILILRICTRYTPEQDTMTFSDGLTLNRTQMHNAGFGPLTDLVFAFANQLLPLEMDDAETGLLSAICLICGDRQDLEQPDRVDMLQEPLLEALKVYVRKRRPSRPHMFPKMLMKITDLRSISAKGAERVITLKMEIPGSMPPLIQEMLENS
Source text: as §1, §2, §3

[3] = target: T3, RARβ (Homo sapiens, UniProt P10826); experiment: chimeric receptor transactivation assay, RARβ; type: cell-based; conditions: value in parentheses
T3 sequence (P10826 183-417 limits assumed): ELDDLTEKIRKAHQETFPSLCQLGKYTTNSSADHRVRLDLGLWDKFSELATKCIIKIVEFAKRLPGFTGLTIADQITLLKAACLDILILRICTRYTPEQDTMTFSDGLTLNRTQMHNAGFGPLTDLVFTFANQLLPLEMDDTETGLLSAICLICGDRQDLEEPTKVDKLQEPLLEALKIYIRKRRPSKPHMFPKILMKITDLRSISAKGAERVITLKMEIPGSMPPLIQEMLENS
Source text: as §1
as §2, with “reference.” for “reference. The numeric results obtained with several preferred compounds of this invention in this assay are shown below in Table 1.”
as §3, with “A detailed experimental procedure for holoreceptor transactivations has been described by Heyman et al. Cell 68,397-406, (1992); Allegretto et al. J. Biol. Chem. 268,26625-26633, and Mangelsdorf et al. The Retinoids: Biology, Chemistry and Medicine, pp 319-349, Raven Press Ltd., New York, which are expressly incorporated herein by reference.” left out

[4] = target: T4, RARα (Homo sapiens, UniProt P10276); experiment: ligand binding assay, RARα; conditions: read-out: RAR α Kd
T4 sequence (P10276 1-462): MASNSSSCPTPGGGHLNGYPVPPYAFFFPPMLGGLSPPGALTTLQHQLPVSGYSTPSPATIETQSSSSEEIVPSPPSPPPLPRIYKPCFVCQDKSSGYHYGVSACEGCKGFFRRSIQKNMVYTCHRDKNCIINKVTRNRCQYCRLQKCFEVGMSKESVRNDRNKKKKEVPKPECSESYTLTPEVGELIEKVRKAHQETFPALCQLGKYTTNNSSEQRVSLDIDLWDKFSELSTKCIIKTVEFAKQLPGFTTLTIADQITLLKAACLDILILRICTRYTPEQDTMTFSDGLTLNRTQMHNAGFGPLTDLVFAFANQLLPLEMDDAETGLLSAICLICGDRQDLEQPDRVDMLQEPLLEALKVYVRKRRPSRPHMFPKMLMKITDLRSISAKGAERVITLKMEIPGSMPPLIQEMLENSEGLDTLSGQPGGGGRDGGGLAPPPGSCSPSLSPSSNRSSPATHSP
Source text: as §1
as §3, with “The results obtained in this assay are expressed in EC50 numbers, as they are also in the chimeric receptor transactivation assay. The results of ligand binding assay are expressed in Kd numbers. (See Cheng et al. Biochemical Pharmacology Vol. 22 pp 3099-3108, expressly incorporated herein by reference.)” left out

| SMILES | RAR γ (EFFICACY) [1] | RAR α (EFFICACY) [2] | RAR β (EFFICACY) [3] | Kd [4] [µM] |
| --- | --- | --- | --- | --- |
| CC1(C)CC2(CC2)Oc2ccc(C#Cc3ccc(C(=O)O)c(F)c3)cc21 [Compound 44, 2-Fluoro-benzoic acid, 4-[(3,4-dihydro-4,4-dimethylspiro[2H-1-benzopyran-2,1′-cyclopropane]-6-yl)ethynyl]-] | (116) | (138) | (100) | – |
| CC1(C)CC2(CC2)Oc2ccc(C#Cc3ccc(C(=O)O)cc3)cc21 [Compound 40, Benzoic acid, 4-[(3,4-dihydro-4,4-dimethylspiro[2H-1-benzopyran-2,1′-cyclopropane]-6-yl)ethynyl]-] | (140) | (207) | (126) | – |
| CC1(C)CCC(=O)c2ccc(C#Cc3ccc(CC(=O)O)cc3)cc21 [Compound 5, 4-[(8,8-Dimethyl-5-oxo-5,6,7,8-tetrahydro-naphthalene-2-yl-ethynyl)-phenyl]-acetic acid] | – | – | (36) | – |
| Cc1cc(C#Cc2ccc(C(=O)O)cc2)ccc1C1(OCc2ccccc2)CC1 [Compound 81, 4-[4-(1-Benzyloxycyclopropyl)-3-methyl-phenylethynyl]-benzoic acid] | (67) | – | (80) | – |
| CC1(C)CC(C)(C)c2cc(C(=O)Oc3ccc(CC(=O)O)cc3)ccc2O1 [Compound 46, 2,2,4,4-Tetramethyl-chroman-6-carboxylic acid 4-(carboxymethyl)phenyl ester] | – | – | – | > 10 |
| CCCNC1(c2ccc(C#Cc3ccc(C(=O)O)cc3)cc2)CC1 [Compound 108, 4-[4-(1-Propylamino-cyclopropyl)-phenylethynyl]-benzoic acid] | (10) | (15) | (36) | – |
| O=C(O)c1ccc(C#Cc2ccc(C3(NCc4ccccc4)CC3)cc2)cc1 [Compound 112, 4-[4-(1-Benzylamino-cyclopropyl)-phenylethynyl]-benzoic acid] | – | – | (37) | – |
| CC(C)OC1(c2ccc(C#Cc3ccc(C(=O)O)cc3)cc2)CC1 [Compound 73, 4-[4-(1-Isopropoxycyclopropyl)-phenylethynyl]-benzoic acid] | (24) | – | (39) | – |
| CC1(C)CCC(=O)c2ccc(C#Cc3ccc(C(=O)O)c(F)c3)cc21 [Compound 10, 2-Fluoro-4-(818-dimethyl-5-oxo-5,6,7,8-tetrahydro-naphthalen-2yl-ethynyl)-benzoic acid] | (94) | (146) | (86) | – |
| CCCN(CCC)C1(c2ccc(C#Cc3ccc(C(=O)O)cc3)cc2)CC1 [Compound 110, 4-[4-(1-Dipropylamino-cyclopropyl)-phenylethynyl]-benzoic acid] | (42) | – | (44) | – |
| Cc1cc(C#Cc2ccc(C(=O)O)cc2)ccc1C1(OC(C)C)CC1 [Compound 85, 4-[4-(1-Isopropoxycyclopropyl)-3-methyl-phenylethynyl]-benzoic acid] | (65) | (60) | (77) | – |
| Cc1cc(C#Cc2ccc(C(=O)O)cc2)ccc1C1(OCC(C)(C)C)CC1 [Compound 89, 4-[4-[1-(2,2-Dimethylpropyloxy)-cyclopropyl]-3-methyl-phenylethynyl]-benzoic acid] | (46) | (20) | (50) | – |
| CN(C1CC1)C1CCC(C)(C)c2cc(C#Cc3ccc(C(=O)O)c(F)c3)ccc21 (stereo not drawn) [Compound 13, 4-[5-(Cyclopropyl-methyl-amino)-8,8-dimethyl-5,6,7.8-tetrahydro-naphthalene-2-yl-ethynyl]-2-fluoro benzoic acid] | (9) | – | (6.6) | – |
| CCc1cc(C#Cc2ccc(C(=O)O)cc2)ccc1C1(OCc2ccccc2)CC1 [Compound 93, 4-[4-(1-Benzyloxycyclopropyl)-3-ethyl-phenylethynyl]-benzoic acid] | (55) | (114) | (39) | – |
| COC1(c2ccc(C#Cc3ccc(C(=O)O)cc3)cc2)CC1 [Compound 69, 4-[4-(1-Methoxycyclopropyl)-phenylethynyl]-benzoic acid] | (31) | (10) | (50) | – |
| CN(C1CC1)C1CCC(C)(C)c2cc(C#Cc3ccc(CC(=O)O)cc3)ccc21 (stereo not drawn) [Compound 8, 4-[(5-(Cyclopropyl-methyl-amino)-8,8-dimethyl-5,6,7,8-tetrahydro-naphthalene-2-yl-ethynyl)-phenyl]-acetic acid] | – | – | (96) | – |
| CN(C1CC1)C1CCC(C)(C)c2cc(C#Cc3ccc(C(=O)O)cc3)ccc21 (stereo not drawn) [Compound 3, 4-[(5-Cyclopropyl-methyl-amino)-8,8-dimethyl-5,6,7,8-tetrahydro-naphthalene-2yl-ethynyl]-benzoic acid] | (52) | (28) | (54) | – |
